Results from patent US20130259844A1, “Fermented Foodstuff” (University of Plymouth, priority 2010, published 2013).

Legend:
[1] = Fermentation of first milk substrate (dried skimmed milk powder), pH monitoring; settings: incubated at 30° C.
Protocol: (§1) Lactic acid producing bacteria listed in Table 1 were tested for their ability to ferment two milk substrates according to the following procedures:
(§2) A commercially available dried skimmed milk powder was prepared according to the manufacturer's instructions to provide a first milk substrate. A milk replacer for calves (70 g) was mixed with water (100 g) to provide a second milk substrate. Both substrates were placed in a steamer for 30 minutes/day for each of 3 days for sterilisation.
(§3) Each lactic acid producing bacteria was grown in MRS broth (ex Oxoid) for 24 hours at 37° C.
(§4) 100 ml of each milk substrate was inoculated with 100 μl of the culture of each lactic acid producing bacteria. The samples were incubated at 30° C. for 48 hours. The ability of the bacteria to ferment the milk substrate was determined by monitoring the pH at intervals during the incubation of 0, 8, 24, 32 and 48 hours, with a reduction in the pH indicating the production of lactic acid. The results for the first and second milk substrates are set out in Tables 3 and 4 respectively.

[2] = Fermentation of second milk substrate (milk replacer for calves), pH monitoring; settings: incubated at 30° C.
Protocol: as §1, §2, §3, §4

Substance | pH ([1]; 0 h) | pH ([1]; 8 h) | pH ([1]; 24 h) | pH ([1]; 32 h) | pH ([1]; 48 h) | pH ([2]; 0 h) | pH ([2]; 8 h) | pH ([2]; 24 h) | pH ([2]; 32 h) | pH ([2]; 48 h)
Lactobacillus salivarius ss. Salivarius [NCIMB 41606] | 6.69 | 6.61 | 5.55 | 4.76 | 4.35 | 5.82 | 6.03 | 6.01 | 5.92 | 5.37
Lactobacillus plantarum [NCIMB 41608] | 6.69 | 6.65 | 5.85 | 4.96 | 4.45 | 6.12 | 6.44 | 6.50 | 6.25 | 5.71
Lactobacillus plantarum [NCIMB 41607] | 6.69 | 6.62 | 5.83 | 5.08 | 4.53 | 5.54 | 5.69 | 5.75 | 5.61 | 4.80
Lactobacillus salivarius ss. Salivarius [NCIMB 41609] | 6.69 | 6.62 | 5.72 | 4.98 | 4.56 | 5.55 | 5.69 | 5.70 | 5.58 | 4.93
Lactobacillus plantarum [NCIMB 41605] | 6.69 | 6.65 | 6.09 | 5.22 | 4.60 | 6.13 | 6.46 | 6.51 | 5.90 | 5.72
Lactobacillus salivarius ss. Salivarius [NCIMB 41610] | 6.69 | 6.68 | 5.69 | 4.96 | 4.46 | 5.55 | 5.67 | 5.72 | 5.54 | 4.76
